Reference: article PMC11019550, “Potent Inhibition of E. coli DXP Synthase by a gem-Diaryl Bisubstrate Analog” (ACS Infectious Diseases, 2024)

Columns and labels:
[1] = tested on: porcine pyruvate dehydrogenase (PDH) E1 subunit; test: Inhibition of porcine pyruvate dehydrogenase (PDH); type: biochemical; details: DXPS over porcine PDH
From the text: As noted, DXPS has a large active site and follows a mechanism requiring ternary complex formation, distinct from other ThDP-dependent pyruvate decarboxylases. We hypothesized that the sterically demanding scaffold of 8, predicted to engage both substrate binding sites, should display selectivity for DXPS. In a preliminary assessment, we tested 8 as an inhibitor of porcine pyruvate dehydrogenase (PDH) E1 subunit. […] For comparison, the selectivity ratio for 1 was estimated to be >15,000-fold for DXPS over porcine PDH.
Figure S5. Evaluation of inhibitory activity of 8 against mammalian porcine pyruvate dehydrogenase (PDH). Porcine PDH (0.01 U/mL) and inhibitor (8 or MAP positive control) were preincubated for 10 minutes at 25 °C in enzyme buffer (2 mM MgCl2, 5 mM L-cysteine, 1 mM ThDP, 300 μM TCEP, 100 mM HEPES pH 8, 2.5 mM NAD +, and 100 μM coenzyme A). The reaction was initiated by addition of pyruvate (60 μM). The change in absorbance at 340 nm over time was measured and used to calculate the initial rate of NADH formation. The % activity of PDH in the presence of 8 or MAP was plotted using GraphPad Prism version 9. There is 21% inhibition of PDH activity observed in the presence of compound 8 at a concentration of 1 mM.
Experiments were performed in triplicate. Error bars represent standard error.
Figure S6. Replicate progress curves for DXP formation in the presence or absence of inhibitors 8 or 10 with EcDXPS. A) Progress curves for formation of DXP in the presence of 8 display time-dependence of inhibition. B) Progress curves for formation of DXP in the presence of descarboxyl […]

EcDXPS = target: T1, EcDXPS (Escherichia coli, UniProt P77488); test: DXPS-IspC coupled assay, apparent Ki on wildtype EcDXPS; type: biochemical; details: for Ki: read-out: Ki^app; for fold change in Ki^app relative to 1: relative to compound 1; for fold increase in Ki^app relative to 8: relative to compound 8
T1 construct: made in house
Experimental: To determine inhibitor potency, we used the DXPS-DXP reductoisomerae (DXPS-IspC) coupled assay to measure the activity of recombinant purified EcDXPS[24],[25],[31],[44],[50] in the presence of inhibitors. Reactions were initiated by the addition of substrates following a short preincubation of the inhibitor with enzymes, and initial velocities were determined by monitoring reduced nicotinamide adenine dinucleotide phosphate (NADPH) absorbance at 340 nm. Apparent Ki values were determined by fitting initial velocity data to the Morrison equation,[64],[65] which accounts for the tight-binding nature (Ki^app/[E]total < 10)[66] of inhibitors included in this study and allows for rigorous comparison of inhibitor potencies. […] Inhibitor activities were rationalized based on the predictions made from molecular docking of the corresponding PLThDP adducts into the DXPS active site.
All compounds in this study were evaluated as DXPS inhibitors using the DXPS-IspC coupled assay as previously reported.[24] […] The DXPS reaction was initiated by the addition of substrates (50 μM pyruvate and 500 μM D-GAP). The initial rate of depletion of NADPH was monitored at 340 nm and was used to calculate the initial rate of DXP formation in the presence or absence of inhibitor. Initial rates of DXP formation were plotted as a function of [inhibitor], and Ki^app was determined by fitting the data to the Morrison equation (eq 1)[64],[65] in GraphPad Prism. This approach was deemed appropriate as the concentration of free inhibitor cannot be assumed to remain constant for most of these analogs in which Ki^app values approach the concentration of DXPS.[88],[89] Error is reported as standard deviation from three replicates. Active enzyme concentration ([E]T) was determined following Copeland’s method using 8 (Figure S2B).[88]
The coupled assay was initiated by adding 20 μL of a 10× substrate stock to the preincubated E + I mixture to give a final volume of 200 μL. The final concentration of D-GAP was held constant at 500 μM, and [pyruvate] was added to final concentrations between 0 and 250 μM. The initial rate of NADPH depletion in the IspC-coupled reaction was monitored at 340 nm and was used to calculate the initial rate of DXP formation in the presence or absence of inhibitor. Initial rates were plotted as a function of [pyruvate]. […] Model discrimination analysis employing the Akaike information criterion was performed as well as Lineweaver–Burk analysis to determine the mixed model as the best fit. In all cases, error bars represent the standard deviation from three replicates.

WT EcDXPS [2] = target: T2, WT EcDXPS (Escherichia coli, UniProt P77488); test: Circular dichroism titration (PLThDP formation, apparent KD) on WT EcDXPS; type: binding
T2 construct: made in house
From the text: The X-ray structure obtained from cocrystallization of DrDXPS with 1 (Figure 2) indicates the formation of the PLThDP adduct by reaction of the acetylphosphonate mimic of pyruvate with the C2 carbanion of ThDP. We reasoned that 8 should also engage the pyruvate binding site and react with ThDP to form a PLThDP adduct. Circular dichroism (CD) is a powerful tool that can be used to detect LThDP and LThDP-like adducts on thiamin-dependent enzymes,[56],[67]−[75] including DXPS.[31],[36],[43],[44],[49]−[52],[76] DXPS bound to ThDP (E-ThDP) is characterized by a CD λmin at 320 nm, indicative of the 4′-aminopyrimidine (AP) tautomer of ThDP (Figure 8A). Upon addition of pyruvate to E-ThDP, a new positive signal emerges at 313 nm, indicating the formation of LThDP in its 1′,4′-iminopyrimidine (IP) form. Similarly, upon addition of AP-based inhibitors to E-ThDP, the E-PLThDP adduct is formed, characterized by an increasing, broad CD signal.[69],[77],[78] Determination of apparent KD of PLThDP by plotting the CD signal corresponding to PLThDP versus [MAP] has been used as a proxy for PLThDP affinity.[77],[78] To confirm that 8 reacts with ThDP to form PLThDP in the DXPS active site, the change in CD signal upon addition of 8 (0.25–30 μM) to EcDXPS (30 μM) was measured. […] Plotting the CD signal at 294 nm versus affords a curve that approaches the limiting asymptotes defined by infinitely tight binding (Figure 8C),[79],[80] which is expected for this nanomolar inhibitor under the conditions of high [DXPS] required for this method. Since in this case [DXPS] ≫ KD^app, an accurate determination of KD^app is not possible, and data were fit to a quadratic equation to give an estimated upper limit for the value of KD^app (≤0.04 ± 0.01 μM). Addition of 10 to DXPS also results in an increased, broad CD signal (Figure S7A), indicating PLThDP formation. […]
CD titrations of 8 and 10 onto WT, R99A, and R478A EcDXPS variants were conducted at 25 °C under aerobic conditions in 1.5 mL solutions containing 30 μM EcDXPS in 50 mM HEPES pH 8, 100 mM NaCl, 1 mM MgCl2, and 0.2 mM ThDP. […] The CD signals at 294 nm determined from the difference spectra obtained by subtracting the signal of E-ThDP at 294 nm were plotted as a function of [inhibitor] and fit to (1) the quadratic equation described in eq 2 (8 on WT DXPS), where E is the concentration of DXPS taking into account stoichiometric binding and CDmax is the maximal CD signal, or (2) a one-site specific binding curve (all other experiments) using GraphPad Prism Version 9 to calculate an apparent KD. Experiments were conducted in triplicate and the standard error was calculated. […]
At the conclusion of the titration described above, the CD signal at 313 nm (previously characterized for LThDP) was recorded. […]

R478A EcDXPS = target: T3, R478A EcDXPS (Escherichia coli, UniProt P77488, R478A); test: Circular dichroism titration (PLThDP formation, apparent KD) on R478A EcDXPS; type: binding
T3 construct: made in house
Experimental: (§1) CD titrations of 8 and 10 onto WT, R99A, and R478A EcDXPS variants were conducted at 25 °C under aerobic conditions in 1.5 mL solutions containing 30 μM EcDXPS in 50 mM HEPES pH 8, 100 mM NaCl, 1 mM MgCl2, and 0.2 mM ThDP. Scans were obtained from 280 to 400 nm with a 0.5 s averaging time and 1 nm step following a titration of inhibitor (8: 0.25–30 μM on WT, 0.5–30 μM on R99A and R478A; 10 2.5–30 μM on WT, R99A, and R478A), with a 5 min preincubation of inhibitor with DXPS prior to scanning. […] The CD signals at 294 nm determined from the difference spectra obtained by subtracting the signal of E-ThDP at 294 nm were plotted as a function of [inhibitor] and fit to (1) the quadratic equation described in eq 2 (8 on WT DXPS), where E is the concentration of DXPS taking into account stoichiometric binding and CDmax is the maximal CD signal, or (2) a one-site specific binding curve (all other experiments) using GraphPad Prism Version 9 to calculate an apparent KD. Experiments were conducted in triplicate and the standard error was calculated. [drawing 2] 2
(§2) At the conclusion of the titration described above, the CD signal at 313 nm (previously characterized for LThDP) was recorded. Pyruvate (1 mM) was then added to the mixture, and a CD scan of the resulting solution was conducted as described above, to detect shifts in the CD spectrum that may correlate to LThDP formation. Experiments were conducted in triplicate.

WT EcDXPS [3] = target: T2, WT EcDXPS; test: Time-dependent inhibition, reaction progress curves on WT EcDXPS; type: biochemical; details: 8 at 400 or 800 nM, 10 at 1 or 100 μM
Experimental: To determine if 8 is also a slow-onset inhibitor of DXPS, reaction progress was monitored upon simultaneous addition of substrates (pyruvate and D-GAP) in the presence or absence of inhibitor. In the absence of inhibitor, the reaction progress curve is linear. […] To assess the importance of the carboxyl group of 8, we evaluated descarboxy analog 10 in the same manner.
EcDXPS (100 nM) and IspC (2 μM) were preincubated in enzyme reaction buffer (100 mM HEPES pH 8, 2 mM MgCl2, 5 mM NaCl, 1 mM ThDP, and 200 μM NADPH) with 250 μM D-GAP for 10 min at 25 °C. The reaction was initiated by the addition of pyruvate (1 mM) and inhibitor (400 nM and 800 nM 8; 1 μM and 100 μM 10). The reaction mixture was incubated at 25 °C, and the absorbance of NADPH at 340 nm was monitored. The change in the absorbance of NADPH over time was used to calculate [DXP] (μM) produced over time. Experiments were performed in triplicate.

R99A EcDXPS = target: T4, R99A EcDXPS (Escherichia coli, UniProt P77488, R99A); test: Circular dichroism titration (PLThDP formation, apparent KD) on R99A EcDXPS; type: binding
T4 construct: made in house
Experimental: as §1, §2

Row | Structure (SMILES) | Ki (EcDXPS) [nM] | fold change in Ki^app relative to 1 (EcDXPS) [fold] | other results
1 | CC(=O)P(=O)(O)OCCc1cn([C@H](Cc2ccccc2)C(=O)O)nn1 [Compound 1, D-PheTrAP] | 260 ± 30 | – | estimated selectivity ratio for DXPS over porcine PDH [1]: > 15,000 fold
2 | CC(=O)P(=O)(O)OCCc1cn([C@H](Cc2ccc(-c3ccccc3)cc2)C(=O)O)nn1 [Compound 2] | 8000 ± 1000 | 30 | –
3 | CC(=O)P(=O)(O)OCCc1cn([C@H](Cc2ccc(OCc3ccccc3)cc2)C(=O)O)nn1 [Compound 3] | 4900 ± 600 | 19 | –
4 | CC(=O)P(=O)(O)OCCc1cn([C@H](COCc2ccccc2)C(=O)O)nn1 [Compound 4] | 1420 ± 50 | ~5 | –
5 | CC(=O)P(=O)(O)OCCc1cn([C@@H](C(=O)O)c2ccccc2)nn1 [Compound 5] | 2100 ± 200 | 8 | –
6 | CC(=O)P(=O)(O)OCCc1cn([C@@H](C(=O)O)C(c2ccccc2)c2ccccc2)nn1 [Compound 6] | 570 ± 120 | – | –
7 | CC(=O)P(=O)(O)OCCc1cn([C@H](Cc2cccc3ccccc23)C(=O)O)nn1 [Compound 7] | 600 ± 60 | – | –
8 | CC(=O)P(=O)(O)OCCc1cn(C(Cc2ccccc2)Cc2ccccc2)nn1 [Compound 10] | 11000 ± 1000 | – | Kd (WT EcDXPS [2]): 9000 ± 1000 nM; change in PLThDP CD signal upon addition of 1 mM pyruvate (WT EcDXPS [2]; WT EcDXPS 30 μM, inhibitor 30 μM): CD signal shift and an increase in amplitude; Kd (R478A EcDXPS): 6000 ± 1000 nM; fold increase in Ki^app relative to 8 (EcDXPS): ~3800 fold; time dependence of inhibition (progress curve for DXP formation) (WT EcDXPS [3]): linear; Kd (R99A EcDXPS): 14500 ± 700 nM
9 | COC(=O)C(Cc1ccccc1)(Cc1ccccc1)n1cc(CCOP(=O)(O)C(C)=O)nn1 [Compound 11] | 2900 ± 500 | – | fold increase in Ki^app relative to 8 (EcDXPS): 1000 fold
10 | CC(=O)P(=O)(O)OCCc1cn(C2(C(=O)O)Cc3ccccc3C2)nn1 [Compound 12] | 290 ± 40 | – | –
11 | CC(=O)P(=O)(O)OCCc1cn(C2(C(=O)O)CCCC2)nn1 [Compound 13] | 530 ± 110 | – | –
12 | CC(=O)P(=O)(O)OCCc1cn([C@H](CC2CCCCC2)C(=O)O)nn1 [Compound 14] | 260 ± 60 | – | –
13 | CC(=O)P(=O)(O)OCCc1cn([C@@H](C(=O)O)C2CCCCC2)nn1 [Compound 15] | 1600 ± 200 | 6 | –
14 | CC(=O)P(=O)(O)OCCc1cn([C@@H](C(=O)O)C23CC4CC(CC(C4)C2)C3)nn1 [Compound 16] | 360 ± 10 | – | –
15 | CC(=O)P(=O)(O)OCCc1cn([C@H](C(=O)O)C23CC4CC(CC(C4)C2)C3)nn1 [Compound 17] | 390 ± 60 | – | –
16 | CC(=O)P(=O)(O)OCCc1cn([C@@H](CO)Cc2ccccc2)nn1 [Compound 18] | 13300 ± 1400 | – | –
17 | CC(=O)P(=O)(O)OCCc1cn([C@H](CO)Cc2ccccc2)nn1 [Compound 19] | 13400 ± 1500 | – | –
18 | CC(=O)P(=O)(O)OCCc1cn(C(c2ccccc2)c2ccccc2)nn1.CCN(CC)CC [Compound 20] | 5420 ± 40 | ~21 | –
19 | CC(=O)P(=O)(O)OCCc1cn([C@H](Cc2ccccc2)C(c2ccccc2)c2ccccc2)nn1 [Compound 21] | – | – | inhibition of EcDXPS (EcDXPS; up to a concentration of 50 μM): Minimal inhibition
20 | CC(=O)P(=O)(O)OCCc1cn([C@@H](Cc2ccccc2)C(c2ccccc2)c2ccccc2)nn1 [Compound 22] | 96000 ± 10000 | 370 | α (mixed inhibition model) (EcDXPS; mixed inhibition model): > 1; inhibition mode (EcDXPS; model discrimination by Akaike's information criterion, varied pyruvate): mixed inhibition mode
